{
  "source": "paper PMC12395054",
  "about": "“Targeting MDM2 homodimer and heterodimer disruption with DRx-098D in TP53 wild-type and mutant cancer cells” (Molecular Therapy Oncology, 2025)",
  "key": {"MDM2:MDMX heterodimer": {"target": "T1, MDM2:MDMX heterodimer (Homo sapiens, UniProt Q00987)", "T1 construct": "PLA of endogenous FL-MDM2 and MDMX in A549; endogenous in cells; host or cells: A549", "T1 sequence (Q00987 whole entry, one chain of several)": "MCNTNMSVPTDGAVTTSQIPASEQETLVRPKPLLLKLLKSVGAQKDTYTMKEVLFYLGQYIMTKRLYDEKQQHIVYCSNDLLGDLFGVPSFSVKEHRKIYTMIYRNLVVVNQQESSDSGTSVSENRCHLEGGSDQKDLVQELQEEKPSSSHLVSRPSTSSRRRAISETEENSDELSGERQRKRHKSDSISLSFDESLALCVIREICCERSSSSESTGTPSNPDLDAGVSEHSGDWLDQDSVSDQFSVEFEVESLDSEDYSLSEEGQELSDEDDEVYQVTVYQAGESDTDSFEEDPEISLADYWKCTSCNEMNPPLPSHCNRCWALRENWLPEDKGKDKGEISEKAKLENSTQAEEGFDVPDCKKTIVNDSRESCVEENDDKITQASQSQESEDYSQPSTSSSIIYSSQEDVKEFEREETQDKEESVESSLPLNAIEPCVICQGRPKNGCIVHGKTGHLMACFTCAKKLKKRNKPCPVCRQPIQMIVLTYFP", "assay": "Proximity ligation assay, endogenous FL-MDM2 and MDMX in A549", "assay_type": "cell-based", "details": "A549 (TP53 WT), 10% FBS"}, "HCT116 TP53 null cells": {"tested_on": "HCT116 TP53 null cells", "assay": "Cell viability (CellTiter Glo 2.0)", "assay_type": "cell-based, human", "details": "24 h, 2% FBS", "method": "Immunocytochemistry. HCT116 TP53 null cells were seeded at 0.5 x 10^5 cells per well of a 12-well plate containing a sterilised 0.13-0.17mm glass coverslip in complete DMEM and incubated overnight. Cells were fixed in 4% paraformaldehyde (Sigma) for 15 minutes at room temperature, then permeabilised with 0.1% triton X100 (Sigma) for 4 minutes at room temperature. Cells were then blocked in 10% donkey serum, 1% BSA in PBS for 1 Hr at room temperature. Following blocking, cells were co-incubated in MDM2 (mouse) and MDMX (rabbit) primary antibodies overnight at 4 °C. Subsequently, secondary Alexa Fluor antibodies were co-incubated for a further 1 Hr at room temperature. […]\nRTCA xCELLigence. Real-time cellular analysis (RTCA) of A549 cells was measured utilising the label-free cellular growth xCELLigence platform (Roche Applied Science, Agilent Technologies), where-by cellular impedance was leveraged as an indirect indicator of relative cell growth (i.e., cell index; CI). […] Relative growth (Δ growth) of treated A549 cells was assessed as a % difference of vehicle after 72 Hrs post-treatment (i.e., 100% relative cell growth at experiment endpoint).\nCell Viability. For MOLM-13, THP-1 (Fig. 3A), HCT116 TP53 wild-type, HCT116 TP53 null (Fig. 3D), HEK293, and IMR-90 (Fig. 3E) cells, relative cell viability was assessed via CellTiter Glo 2.0 Cell Viability Assay (Promega: […]"}},
  "data": [
    {"smiles": "COc1cc(C(=O)O)ccc1NC(=O)[C@@H]1N[C@@H](CC(C)(C)C)[C@](C#N)(c2ccc(Cl)cc2F)[C@H]1c1cccc(Cl)c1F", "note": "[Idasanutlin]", "values": [
      {"measurement": "Endogenous MDM2 heterodimerization, PLA", "setting": "MDM2:MDMX heterodimer", "result": "did not affect MDM2 heterodimerization"},
      {"measurement": "Relative cell viability / anti-proliferative activity (in words)", "setting": "HCT116 TP53 null cells", "result": "no anti-proliferative activity"}
    ]}
  ]
}
